Laboratory results reported in patent US20040253319A1, “Pharmaceutical compositions and method for alleviating side-effects of estrogen replacement therapy” (priority 2003, published 2004).

Tests used:
Format in all cases: cell-based
[1] = tested on: VEGF release in human breast cancer cells (MCF-7 cells); assay: VEGF release in human breast cancer cells (cytokine expression assay, ELISA); conditions: estrogen 10-100 nM; FIG. 6
Text: Measurement of VEGF (Vascular Endothelial Growth Factor) in Cancer Cells Rationale: New vascularization formation (i.e., neo-vascularization) within a tumor bed is essential to the tumor growth. Without the new blood vessel formulation, most tumors can only grow to approximately 1 mm in diameter because the supply of nutrient and oxygen to the growing tumor cells depends on the blood vessels around the tumor. A tumor has the ability to attract new blood vessel formation (neo-vascularization) by releasing a protein known as vascular endothelial growth factor (VEGF). It is desirable to inhibit the VEGF expression in cancer cells so as to prevent neo-vascularization and inhibit tumor growth. (See, Vascular Endothelial Cell Growth Factor (VEGF), an Emerging Target for Cancer Chemotherapy, Shinkaruk, et al., Current Medicinal Chemistry and Anti-Cancer Agents, 2003, Vol. 3, pages 95-117).
(§1) The level of cellular vascular endothelium growth factor (VEGF) production is an indicator of a stimulation of neo-vascularization processes. A rate of cytokine synthesis and secretion into medium by culture cells was measured with a commercially available immunochemical assay kit. […] The level of cytokines secreted into cell culture medium was measured using ELISA kits according to manufacturer's protocol (R&D Systems).

[2] = tested on: human smooth muscle cells; assay: [3H]thymidine incorporation growth rate assay in human smooth muscle cells; conditions: estrogen 50-450 nM; FIG. 1
Description: Rationale: As described, the excessive growth rate of smooth muscle cells and cancer cells is directly related to accelerated atherosclerotic process and malignant tumor growth, respectively. Cultured cell growth rate is estimated according to de novo DNA synthesis assessed (i.e., [^3H]Thymidine Incorporation) according to the amount of Tritium-labeled metabolic precursor incorporated into cellular DNA during incubation period.
Human smooth muscle cells (Aortic-Cambrex Corporation, San Diego, Calif., Cat. No. CC-2571) were seeded at a cell concentration of 40,000 cells/ml (0.5 mL) per well in 24-well plates containing an appropriate growth medium (DMEM plus 10% FBS). After three hours incubation, cells were washed and fresh culture media containing tested compositions at indicated amounts were added Cells were allowed to culture for an additional 3-4 days. At the end of the culture, an aliquot of [^3H]thymidine (DuPont-NEN, Boston, Mass.) was added at a final concentration of 1 microCi/mL ([…]). After 24 hours, cells were washed in ice-cold Dulbecco's PBS, fixed in cold 10% TCA (trichloroacetic acid) for at least 0.5 hour, and incubated with 0.5 mL 0.1N sodium hydroxide for 2 hours at 37° C. Cell bound [^3H]thymidine was extracted in 0.1 N NaOH and measured in a liquid scintillation counter (LS 8000, Beckman Coulter). […]

[3] = tested on: interleukin-6 release in human smooth muscle cells; assay: Interleukin-6 release in human smooth muscle cells; conditions: estrogen 100 nM; FIG. 3
Text: Rationale: Cytokine expression and its involvement in inflammatory responses are known. It has been recently accepted that vascular and smooth muscle pathology manifested in cardiovascular diseases is one of the inflammatory responses during atherosclerosis and hypertension. Interleukin-6 is one of the key cytokines which trigger the inflammation process. Over-expression of interleukin-6 in smooth muscle cells under pathological stimuli may further amplify the inflammatory lesions. The present compositions are designed to inhibit over-expression of cytokine production in smooth muscle cells (in particular, the interleukin-6). By inhibiting the expression of interleukin-6 in smooth muscle cells, the present compositions are believed to be a remedy alleviating the side-effects of estrogen replacement therapy in post-menopausal women.
as §1, with “kit. Cultured cells were seeded in 48 well plates in 0.5 mL of medium containing 10% FBS at concentration 40,000 cell/mL.” for “kit.”

[4] = tested on: human smooth muscle cells; assay: Smooth muscle cell invasion assay (Matrigel); conditions: estrogen 100 nM; FIG. 2
Description: Elevated capacity of smooth muscle cells and cancer cells to invade extracellular matrix is directly related to the initiation of the atherosclerotic plaque formation and to metastasis formation, respectively. Cultured cell invasiveness is estimated according to the number of cells penetrating through a porous plastic membrane covered with natural extracellular matrix ([…], Beckton-Dickinson). Cultured cells were grown in 75 cm^2 flasks in culture medium containing 10% fetal bovine serum (FBS) to near complete confluency of 37° C. For the last 48 hours of incubation de novo synthesized cellular DNA was metabolically labelled by adding 1 microCi/mL [^3H]thymidine. Labelled cells were detached from plastic surface by treating cell layer with 0.025% trypsin in PBS. Cultured cells were seeded on the top surface of the bottom plastic membrane of the inserts placed in the wells of a 24 well plastic plate in 0.5 mL of culture medium containing 10% fetal bovine serum (FBS) at concentration 40,000 cell/mL. Insert bottom membrane has controlled size pores of 8 micron in diameter and is covered with the layer of Matrigel. […] Number of cells penetrated to the other side of the porous membrane was assessed according to amount of lower membrane surface-bound radioactivity as measured with scintillation counter (LS 8000, Beckman-Coulter).

[5] = tested on: human breast cancer cells (MCF-7 cells); assay: [3H]thymidine incorporation in human breast cancer cells (MCF-7); conditions: estrogen 20-500 nM; FIG. 4

estrogen
VEGF release in human breast cancer cells (MCF-7) [1]: induce an increased
[3H]thymidine incorporation in human smooth muscle cells [2]: induce an increase
interleukin-6 release in human smooth muscle cells [3]: induce an increased
human smooth muscle cell invasion [4]: induce an increase
[3H]thymidine incorporation in human breast cancer cells (MCF-7) [5]: induce an increase
